This is an account of results in patent publication US11813236B2, “Substances for treatment of fatty liver-related conditions” (SCANDIBIO THERAPEUTICS AB, priority 2016, dated 2023).

In one data set the test system is humans. As to conditions: cited from earlier work.
The next data set relates to subjects with high HS. In words: Human study: supplementation of serine. Format: in vivo. How it is done:
86 subjects with varying degrees of […] were recruited for studying the response of liver to the HS. Also, liver tissue samples from 12 morbidly obese subjects that underwent bariatric surgery were collected. The mRNA expression of the identified target genes was measured in liver of obese and healthy subjects. In order to show the effect of the serine on the liver, another six subjects were recruited and the subjects' characteristics before and after serine supplementation are presented in Table 3. Subjects included in the studies met all the criteria for NAFLD including exclusion of other chronic liver diseases such as viral hepatitis, risky alcohol consumption, metabolic disorders (e.g., hemochromatosis).
Magnetic resonance experiments were performed using three 1.5 T clinical imagers (1× Sonata and 2× Avanto, Siemens, Erlangen, Germany). Liver fat content was determined using proton magnetic resonance spectroscopy and subcutaneous abdominal and visceral fat was measured by magnetic resonance imaging (Adiels et al, 2006; Lundbom et al, 2011).
[…]
To identify the unique contribution of serine supplementation in decreasing HS, the effect of short-term dietary supplementation with serine on HS and fasting levels of plasma markers of liver functions was assessed in six subjects with high HS. Each patient received one oral dose of ˜20 g of L-serine (200 mg/kg) per day for 14 days.

[1] abbreviates: 200 mg/kg/day oral 14 days, six subjects.

Regarding `CC(=O)N[C@@H](CS)C(=O)O` [NAC, N-acetyl-L-cysteine, reference compound], the “Daily dosage shown to be safe in humans” value in the data set on humans (NAC) is reported as 4-6 grams.

For the compound `N[C@@H](CO)C(=O)O` [serine, L-serine], the “Doses studied in humans and shown to be safe” value in the data set with humans (serine, around 25-30 g/day) was “up to 400 mg/kg/day”. For the same compound, in the data set with subjects with high HS (setting [1]), the “Plasma level of ALP after supplementation (change in words)” value is on record as “significantly decreased”, the “Plasma level of ALT after supplementation (change in words)” value is “significantly decreased” and the “Plasma level of AST after supplementation (change in words)” value is reported as “significantly decreased”. Moreover, the “Plasma ALT, response per subject” value in the data set on subjects with high HS (200 mg/kg/day oral 14 days, six subjects, FIG. 5C panel H) is “consistently decreased in all six subjects”. Moreover, the “Plasma AST, response per subject” value in the data set on subjects with high HS (200 mg/kg/day oral 14 days, six subjects, FIG. 5C panel I) is “consistently decreased in all six subjects”. For the same compound, the “Plasma ALP, response per subject” value in the data set with subjects with high HS (200 mg/kg/day oral 14 days, six subjects, FIG. 5C panel J) is “decreased in five of the participating subjects”. Also, in the data set with subjects with high HS (200 mg/kg/day oral 14 days, six subjects, FIG. 5C panel K, no change in the remaining one subject), the “Plasma TGs, response per subject” value was “decreased in five of the studied subjects”. In the data set on subjects with high HS (200 mg/kg/day oral 14 days, six subjects, change in words), the “Plasma level of serine after supplementation” value is given as “significantly increased”. In the data set with subjects with high HS (NAFLD patients, proof-of-concept human study), the “Markers of liver function after supplementation” value is reported as “significantly improved”. In addition, in the data set on subjects with high HS (after serine, n = 6, 200 mg/kg/day oral 14 days, mean ± SD, baseline 1.00 ± 0.21, P 0.30), the “HDL cholesterol” value turned out to be 1.02 ± 0.18 mmol/L. In addition, the HOMA-IR in the data set with subjects with high HS (after serine, n = 6, 200 mg/kg/day oral 14 days, mean ± SD, baseline 2.15 ± 1.85, P 0.18) turned out to be 1.54 ± 1.49. Also, the “LDL cholesterol” value in the data set with subjects with high HS (after serine, n = 6, 200 mg/kg/day oral 14 days, mean ± SD, baseline 3.68 ± 0.80, P 0.50) is given as 3.85 ± 0.94 mmol/L. In addition, the “Total cholesterol” value in the data set with subjects with high HS (after serine, n = 6, 200 mg/kg/day oral 14 days, mean ± SD, baseline 6.23 ± 1.49, P 0.18) amounted to 5.85 ± 1.15 mmol/L. Also, in the data set on subjects with high HS (after serine, n = 6, 200 mg/kg/day oral 14 days, mean ± SD, baseline 6.57 ± 1.41, P 0.25), the “Fasting plasma glucose” value was 6.33 ± 1.41 mmol/L. Further, the “Plasma triglycerides (TG)” value in the data set with subjects with high HS (after serine, n = 6, 200 mg/kg/day oral 14 days, mean ± SD, baseline 6.90 ± 6.65, P 0.13) stood at 3.63 ± 1.81 mmol/L. In addition, the “Bilirubin” value with subjects with high HS (after serine, n = 6, 200 mg/kg/day oral 14 days, mean ± SD, baseline 7.33 ± 4.11, P 0.13) amounted to 6.48 ± 3.94 µmol/L. Also, the “Fasting plasma insulin (FPI)” value in the data set on subjects with high HS (after serine, n = 6, 200 mg/kg/day oral 14 days, mean ± SD, baseline 46.3 ± 33.8, P 0.23) turned out to be 34.7 ± 25.2 pmol/L. The “γ-Glutamyl transferase (μGT) (U/L)” value in the data set on subjects with high HS (after serine, n = 6, 200 mg/kg/day oral 14 days, mean ± SD, baseline 63.8 ± 12.9, P 0.30) is given as 62.3 ± 16.3 U/L. Also, in the data set with subjects with high HS (after serine, n = 6, L-serine 200 mg/kg oral once per day for 14 days, mean ± SD, baseline 26.8 ± 6.0, P<0.05), the “Liver fat (%)” value is 20.4 ± 7.0%. Also, the “HS (hepatic steatosis) after serine supplementation (change in words)” value with subjects with high HS (magnetic resonance spectroscopy before and after, 200 mg/kg/day oral 14 days) is on record as “significantly decreased”. Moreover, the “HS, response per patient” value in the data set with subjects with high HS (magnetic resonance spectroscopy, 200 mg/kg/day oral 14 days, six patients) was “decreased in all six patients”. Also, the “Aspartate aminotransferase (AST) (U/L)” value with subjects with high HS (plasma, after serine, n = 6, 200 mg/kg/day oral 14 days, mean ± SD, baseline 34.5 ± 8.10, P<0.05) is recorded as 27.4 ± 8.4 U/L. The “Alanine aminotransferase (ALT) (U/L)” value in the data set on subjects with high HS (plasma, after serine, n = 6, 200 mg/kg/day oral 14 days, mean ± SD, baseline 50.8 ± 15.2, P<0.05) came to 37.6 ± 5.3 U/L. Further, the “Alkaline phosphatase (ALP) (U/L)” value in the data set with subjects with high HS (plasma, after serine, n = 6, 200 mg/kg/day oral 14 days, mean ± SD, baseline 76.3 ± 17.2, P<0.05) was determined as 71.3 ± 17.9 U/L. In the data set on subjects with high HS (range over the six NAFLD patients, 200 mg/kg/day oral 14 days), the “Relative decrease in HS” value is on record as 1.0-23%. Moreover, in the data set with subjects with high HS (~20 g L-serine (200 mg/kg) oral once per day for 14 days, six subjects), the “Tolerability of the supplementation” value is recorded as “well tolerated by all the subjects”.
